According to patent US10780074B2, “Compounds and uses thereof” (Sunovion Pharmaceuticals Inc., priority 2017, dated 2020):
Structures can show the parent of a compound that is named as a salt.

System: behaviors of compound-treated mice
Test: Neuropharmacological Assay (SmartCube)
Type: in vivo
Settings: for minimal effective dose: Mus musculus, ip, 0.25 h, dose having 50% or more total activity in SmartCube, i.p., read-out: MED (minimal effective dose); for AD: ADHD (probability that activity matches class) / AG: analgesic (probability that activity matches class) / AX: anxiolytic (probability that activity matches class) / CE: cognitive enhancer (probability that activity matches class) / DP: anti-depressant (probability that activity matches class) / MS: mood stabilizer (probability that activity matches class) / PS: anti-psychotic (probability that activity matches class) / SD: sedative hypnotic (probability that activity matches class) / UN: uncharacterized CNS activity (probability that activity matches class): i.p. 15 min before behavioral test, most efficacious dose(s) of 3 doses
In short: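 Behavioral signatures were captured automatically by video, and each drug class received a probability for the best of three i.p. doses given 15 min pre-test (vehicle: Pharmasolve/PEG/propylene glycol). Potency is given as MED, the lowest mpk dose (typically 0.3–30) reaching 50% or more total activity.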

| SMILES | minimal effective dose | AD: ADHD (probability that activity matches class) | AG: analgesic (probability that activity matches class) | AX: anxiolytic (probability that activity matches class) | CE: cognitive enhancer (probability that activity matches class) | DP: anti-depressant (probability that activity matches class) | MS: mood stabilizer (probability that activity matches class) | PS: anti-psychotic (probability that activity matches class) | SD: sedative hypnotic (probability that activity matches class) | UN: uncharacterized CNS activity (probability that activity matches class) |
| --- | --- | --- | --- | --- | --- | --- | --- | --- | --- | --- |
| NC[C@@H]1OCCc2c(-c3c[nH]cn3)cccc21 (single isomer, unassigned) [Compound 112, hydrochloride salt] | 10 to 30 mg/kg | + (LOQ ≤ + <5%) | + (LOQ ≤ + <5%) | ++ (5% ≤ ++ <25%) | + (LOQ ≤ + <5%) | ++ (5% ≤ ++ <25%) | + (LOQ ≤ + <5%) | + (LOQ ≤ + <5%) | + (LOQ ≤ + <5%) | + (LOQ ≤ + <5%) |
| NC[C@H]1OCCc2c(-c3c[nH]cn3)cccc21 (single isomer, unassigned) [Compound 113, hydrochloride salt] | 3 to 10 mg/kg | + (LOQ ≤ + <5%) | ++ (5% ≤ ++ <25%) | ++ (5% ≤ ++ <25%) | + (LOQ ≤ + <5%) | ++ (5% ≤ ++ <25%) | + (LOQ ≤ + <5%) | +++ (25% ≤ +++ <50%) | + (LOQ ≤ + <5%) | +++ (25% ≤ +++ <50%) |
| CNC[C@@H]1OCCc2c(-c3c[nH]cn3)cccc21 (single isomer, unassigned) [Compound 114, hydrochloride salt] | 10 to 30 mg/kg | + (LOQ ≤ + <5%) | + (LOQ ≤ + <5%) | ++ (5% ≤ ++ <25%) | + (LOQ ≤ + <5%) | + (LOQ ≤ + <5%) | + (LOQ ≤ + <5%) | + (LOQ ≤ + <5%) | + (LOQ ≤ + <5%) | + (LOQ ≤ + <5%) |
| CNC[C@H]1OCCc2c(-c3c[nH]cn3)cccc21 (single isomer, unassigned) [Compound 115, hydrochloride salt] | 10 to 30 mg/kg | + (LOQ ≤ + <5%) | + (LOQ ≤ + <5%) | ++ (5% ≤ ++ <25%) | + (LOQ ≤ + <5%) | + (LOQ ≤ + <5%) | + (LOQ ≤ + <5%) | + (LOQ ≤ + <5%) | + (LOQ ≤ + <5%) | + (LOQ ≤ + <5%) |
| CNC[C@@H]1OCCc2c(-c3ccnc(C)c3)cccc21 (single isomer, unassigned) [Compound 120, hydrochloride salt] | 10 to 30 mg/kg | + (LOQ ≤ + <5%) | + (LOQ ≤ + <5%) | ++ (5% ≤ ++ <25%) | + (LOQ ≤ + <5%) | ++ (5% ≤ ++ <25%) | + (LOQ ≤ + <5%) | + (LOQ ≤ + <5%) | + (LOQ ≤ + <5%) | + (LOQ ≤ + <5%) |
| CNC[C@H]1OCCc2c(-c3ccnc(C)c3)cccc21 (single isomer, unassigned) [Compound 121, hydrochloride salt] | ≤ 3 mg/kg | ++ (5% ≤ ++ <25%) | + (LOQ ≤ + <5%) | ++ (5% ≤ ++ <25%) | + (LOQ ≤ + <5%) | ++++ (50% ≤ ++++) | + (LOQ ≤ + <5%) | + (LOQ ≤ + <5%) | ++ (5% ≤ ++ <25%) | + (LOQ ≤ + <5%) |
| Cc1cc(-c2cccc3c2CCO[C@H]3CN)ccn1 (single isomer, unassigned) [Compound 122, hydrochloride salt] | 10 to 30 mg/kg | + (LOQ ≤ + <5%) | + (LOQ ≤ + <5%) | ++ (5% ≤ ++ <25%) | + (LOQ ≤ + <5%) | + (LOQ ≤ + <5%) | + (LOQ ≤ + <5%) | + (LOQ ≤ + <5%) | + (LOQ ≤ + <5%) | + (LOQ ≤ + <5%) |
| Cc1cc(-c2cccc3c2CCO[C@@H]3CN)ccn1 (single isomer, unassigned) [Compound 123, hydrochloride salt] | ≤ 3 mg/kg | ++ (5% ≤ ++ <25%) | + (LOQ ≤ + <5%) | ++ (5% ≤ ++ <25%) | + (LOQ ≤ + <5%) | ++++ (50% ≤ ++++) | + (LOQ ≤ + <5%) | + (LOQ ≤ + <5%) | + (LOQ ≤ + <5%) | + (LOQ ≤ + <5%) |
| CNC[C@@H]1OCCc2c(-c3ccccc3)cccc21 (single isomer, unassigned) [Compound 128, hydrochloride salt] | 10 to 30 mg/kg | + (LOQ ≤ + <5%) | + (LOQ ≤ + <5%) | + (LOQ ≤ + <5%) | + (LOQ ≤ + <5%) | + (LOQ ≤ + <5%) | + (LOQ ≤ + <5%) | + (LOQ ≤ + <5%) | + (LOQ ≤ + <5%) | + (LOQ ≤ + <5%) |
| CNC[C@H]1OCCc2c(-c3ccccc3)cccc21 (single isomer, unassigned) [Compound 129, hydrochloride salt] | 3 to 10 mg/kg | + (LOQ ≤ + <5%) | + (LOQ ≤ + <5%) | + (LOQ ≤ + <5%) | ++ (5% ≤ ++ <25%) | ++++ (50% ≤ ++++) | + (LOQ ≤ + <5%) | + (LOQ ≤ + <5%) | ++ (5% ≤ ++ <25%) | + (LOQ ≤ + <5%) |
| NC[C@@H]1OCCc2c(-c3ccccc3)cccc21 (single isomer, unassigned) [Compound 130, hydrochloride salt] | 10 to 30 mg/kg | + (LOQ ≤ + <5%) | + (LOQ ≤ + <5%) | ++ (5% ≤ ++ <25%) | + (LOQ ≤ + <5%) | ++ (5% ≤ ++ <25%) | + (LOQ ≤ + <5%) | + (LOQ ≤ + <5%) | + (LOQ ≤ + <5%) | + (LOQ ≤ + <5%) |
| NC[C@H]1OCCc2c(-c3ccccc3)cccc21 (single isomer, unassigned) [Compound 131, hydrochloride salt] | ≤ 3 mg/kg | + (LOQ ≤ + <5%) | + (LOQ ≤ + <5%) | ++ (5% ≤ ++ <25%) | + (LOQ ≤ + <5%) | ++++ (50% ≤ ++++) | + (LOQ ≤ + <5%) | + (LOQ ≤ + <5%) | + (LOQ ≤ + <5%) | ++ (5% ≤ ++ <25%) |
| CNC[C@@H]1OCCCc2c(-c3ccncc3)cccc21 (single isomer, unassigned) [Compound 148] | 10 to 30 mg/kg | + (LOQ ≤ + <5%) | + (LOQ ≤ + <5%) | ++ (5% ≤ ++ <25%) | + (LOQ ≤ + <5%) | + (LOQ ≤ + <5%) | + (LOQ ≤ + <5%) | + (LOQ ≤ + <5%) | + (LOQ ≤ + <5%) | + (LOQ ≤ + <5%) |
